Laboratory results as given in patent US11311598B2, “Peptides and analogs for use in the treatment of oral mucositis” (Soligenix, Inc., priority 2013, dated 2022).
“Also recorded” adds a separate entry of the source. *1 amine or outer side, *2 acyl side, *3 side chain or, on linkers, in order; H or OH if unused. Where no end group is shown, it is not given here. [ ]: non-standard residue; d: D form. mp2 = 4-amino-1-methyl-1H-pyrrole-2-carboxylic acid, Cn1cc(N[*:1])cc1C(=O)[*:2]

Key:
male C3H/HeN mice = experiment: chemotherapy-induced oral and gastrointestinal mucositis in the mouse; format: in vivo; settings: 25 mg/kg IV on Days −1 and 2, scores evaluated for 4 days after induction
Description: In each study, 5-fluorouracil (60 mg/kg IP) was administered to male C3H/HeN mice on Days −4 and −2. […] […] Body weights were also measured daily and colitis severity was determined by video endoscopy on Days 4 and 7. In the first study, RIVPA (SEQ ID NO. 5) (25 mg/kg IV) was administered either once on Day −4 immediately prior to chemotherapy, twice on Days −4 and −2 immediately after chemotherapy or 3 times on Days −1, 2 and 5. […] In the second study, RIVPA (SEQ ID NO. 5) (25 mg/kg IV) was administered on either Days −1, 2 and 5, Days −1, 1 and 3 or Days 0, 2, and 4. […] In the third study, RIVPA (SEQ ID NO. 5) (25 or 5 mg/kg IV, as indicated) was administered either on Days −1, 2 and 5 or on Days 1 and 3. […] Statistical significance was assessed for oral mucositis using a chi-square analysis and for body weight area under the curve (AUC) with an ANOVA on ranks. […] Treatment with R(tBg)V1KR(tBg)V2 (SEQ ID NO. 91) and RIV(mp2)A-NH2 (SEQ ID NO. 92) was administered on Days −1 and 2 at a dose of 25 mg/kg IV.

MRSA [1] = experiment: MRSA bacteremia model (other IDR peptides); format: in vivo; settings: 5 mg/kg administered 4 hours prior to infection
MRSA [2] = experiment: MRSA skin infection model; format: in vivo, mouse; settings: 48 or 96 h after bacterial challenge
Description: Infection was initiated 1 day after the hair was removed from the dorsal area of each mouse. RIVPA (SEQ ID NO. 5) (25 mg/kg IV or 100 mg/kg SC) was administered 4 h prior to infection and at various times after infection as indicated. Oral linezolid was used as the comparator and was administered daily at 12.5 mg/kg. On Day 0 (at −1 h) each mouse was anesthetized using isoflurane and the shaved dorsal skin was damaged by 7 consecutive applications and removals of surgical tape. This lesion was then immediately infected by topical administration of 10 μL of the bacterial suspension, delivering a total challenge of 7.6 login cfu per mouse. Efficacy was evaluated by measurement of the bacterial burden in punch biopsies of the skin at 48 h (FIG. 14—panel A) and 96 h (FIG. 14—panel B) following the bacterial challenge and by macroscopic assessment of digital images of the skin by a blinded, board-certified pathologist at 48 h (FIG. 14—panel C) and 96 h (FIG. 14—panel D) after infection. […] The mean bacterial burden for each therapeutic group was statistically compared to that of its time-matched saline control through use of a t-test comparison of means, assuming unequal variances, performed on Excel. Comparisons which returned a p value […] were considered statistically different.

Row | Molecule | severity of oral mucositis (mucositis scores) (male C3H/HeN mice) | survival (MRSA [1]) | severity of oral mucositis (mucositis scores) (male C3H/HeN mice; listed as 92) | bacterial load in skin punch biopsies relative to control (MRSA [2])
1 | R(tBg)V1KR(tBg)V2 [R(tBg)V1KR(tBg)V2 (SEQ ID NO. 91)] | reduces; also recorded: demonstrated efficacy | improve survival; also recorded: enhances survival |  | 
2 | RIV(mp2)A-NH2 (RIV[mp2]A-NH2; N-terminus assumed; SMILES CC[C@H](C)[C@H](NC(=O)[C@@H](N)CCCNC(=N)N)C(=O)N[C@H](C(=O)Nc1cc(C(=O)N[C@@H](C)C(N)=O)n(C)c1)C(C)C) [RIV(mp2)A-NH2 (SEQ ID NO. 92), mp2 = 4-Amino-1-methyl-1H-pyrrole-2-carboxylic acid] | reduces | enhances survival | demonstrated efficacy | 
3 | RIVPAY* (RIVPA[dY]; also: C-terminal modification (*)) [RIVPAY* (SEQ ID NO. 90)] |  | improve survival |  | 
4 | CC(=O)NC[C@H]1CN(c2ccc(N3CCOCC3)c(F)c2)C(=O)O1 [linezolid, reference compound] |  |  |  | neither linezolid nor RIVPA (SEQ ID NO. 5) reduced bacterial load
